Data on six molecules can be found in patent US4431662A, “1-(1,3-Benzodioxol-5-yl)-2-pyrrolidinone and its medicinal use” (priority 1981, dated 1984).

Usually ED50 stands for the midpoint of the dose-response relation.

Experiment [1] in a line: Rat Hot Plate Assay. Particulars: for ED50: po, 1 h, read-out: Hot Plate Assay - Rat ED50; for Hot Plate Assay - Rat ED50, inactive: at 360 mg/kg. The format is in vivo. The source says: The rat hot plate assay incorporated 2 modifications of the mouse hot plate assay originally described by Eddy et al., J. Pharmacol. Exp. Ther. 98, 121-137 (1950). The first modification was enlargement of the diameter of the cylindrical (water filled) copper plate to 25.0 cm to accommodate rats instead of mice. The second modification was the use of a temperature controller to regulate a 250 watt infrared heat lamp which was activated via a thermistor probe attached to the undersurface of the top of the copper plate. The surface temperature was thus maintained at 45±1.0° C. (N=28 measurements of the plate temperature under experimental conditions). The time in which a rat placed on the hotplate responded by lifting, shaking or licking either of its hind or forelimbs was recorded in tenths of a second. Only animals responding in pretest within 6-13 seconds were used in the studies. Drugs were suspended in 0.5% sodium carboxymethylcellulose and administered orally, by gavage, in a volume of 1.00 ml/100 g.b. wt. 60 min prior to testing. […] The reaction time of 18.3 seconds represented the sum of the mean pretest times of 40 untreated rats plus the time of 3 standard deviations of the mean. ED50 's and their standard errors were estimated from a graph of the dose-response curves using the method of Miller and Tainter (Proc. Soc. Exp. Biol. Med. 57, 261-262 (1944). Following this procedure the analgesic activity of the compound (I) was compared to that of standard analgesic drugs (Table III).
*Duration of Action in Rat Hot Plate assay represents the time in hrs to
reduce 1.5 times the hot plate ED50 to 40% inhibition.

The nature of experiment [2]: Acetic Acid Writhing Test (AAWT) in the rat. The format is in vivo. Particulars: po, read-out: ED50 (Acetic Acid Writhing Assay in the Rat). An excerpt:
Using the procedure described by Koster et al. in Fed. Proc. 18, 412 (1959) and Vinegar et al. in Handbook of Experimental Pharmcology, 50-2, ch.
In general terms: An intraperitoneal irritant provokes the stretching counted in writhing tests.

A short description of experiment [3]: analgesic activity, assay not given (including inhibition by naloxone). The format is in vivo.
A short description of experiment [4]: Yeast-Induced Hyperthermia Assay, antipyretic activity. Particulars: rat; for ED50: po; for antipyretic activity (in words): yeast-induced hyperthermia assay. The format is in vivo. An excerpt: The Yeast-Induced Hyperthermia Assay was used according to the procedure described by Khalili-Varasteh et al. in Arch. Int. Pharmacodyn.
Experiment [5] concerns morphine receptor. The experiment can be described thus: binding to the morphine receptor.
Experiment [6] in a line: Modified Trypsin Hyperalgesic Assay (THA) in the rat. The experiment is classed as in vivo. How it is done:
The analgesic agents were administered 30 minutes after the administration of trypsin. In addition, a modification of Vinegar's published assay was carried out, comprising the administration of the analgesic agent preceding subplantar injection of trypsin (0.10 ml of 10% solution of trypsin in pyrogen-free water) by 15 minutes. In both THA's, pain scores were determined 60 minutes after trypsin injection. The result of the modification was to increase the sensitivity of the THA to the mild analgesic action of the agents.
There were usually 6 rats at each dose level and at least 3 dose levels were used.

Experiment [7] in a line: Carrageenin Pleurisy Assay (CPA), acute anti-inflammatory activity. The experiment is classed as in vivo, rat. How it is done: Following the procedure described by Vinegar et al. in Proc. Soc. Exp. Biol. Med. 151, 556, (1976), the acute anti-inflammatory activity of the compound (I) was compared with that of known anti-inflammatory drugs in the rat. The average 3 hour exudate volume for each drug-treated group was determined and the % inhibition relative to solvent-fed control animals calculated, the ED50 being the dose required to reduce the 3 hour exudate volume by 50%.

[8] abbreviates: rat, p.o., 60 min prior to testing, plate 45±1.0° C.
Where [9] appears, read: po, 1 h, rat, p.o., 6.0 kg Force, agent given 15 minutes before trypsin, pain scores 60 minutes after trypsin, read-out: ED50, 6.0 kg Force (Modified Trypsin Hyperalgesic Assay).

Consider `CN1CC[C@]23c4c5ccc(O)c4O[C@H]2[C@@H](O)C=C[C@H]3[C@H]1C5` [Morphine], for which the ED50 in experiment [1] (Rattus norvegicus) was 17 ± 3.6 mg/kg. In addition, the “Hot plate Duration of Action (time to reduce 1.5 times the hot plate ED50 to 40% inhibition)” value in experiment [1] (rat, p.o., dose 30 mg/kg) was 2.5 h.

For the molecule `O=C1CCCN1c1ccc2c(c1)OCO2` [Compound I, 1-(1,3-benzodioxol-5-yl)-2-pyrrolidinone], the ED50 amounted to 36 ± 7.1 mg/kg in experiment [2] (rat, p.o.); 86 ± 16.5 mg/kg in experiment [1] (setting [8]); 67 ± 4.2 mg/kg in experiment [4]; 24 ± 5.3 mg/kg in experiment [6] (setting [9]); 23 ± 3.5 mg/kg in experiment [6] (po, 1 h, rat, p.o., 7.5 kg Force, agent given 15 minutes before trypsin, pain scores 60 minutes after trypsin, read-out: ED50, 7.5 kg Force (Modified Trypsin Hyperalgesic Assay)); 48 ± 10.5 mg/kg in experiment [7] (po, 3 h, rat, p.o., relative to solvent-fed control animals, read-out: ED50, dose required to reduce the 3 hour exudate volume by 50% (CPA)). In addition, the “analgesic activity (in words)” value in experiment [3] (in vivo) is “mild to moderately strong analgesic activity”. The “inhibition of analgesic activity by naloxone (in words)” value in experiment [3] (naloxone) was “analgesic activity is not inhibited by naloxone”. Also, the “Hot plate Duration of Action (time to reduce 1.5 times the hot plate ED50 to 40% inhibition)” value in experiment [1] (rat, p.o., dose 120 mg/kg) stood at 5.0 h. The “duration of analgesic action (in words)” value in experiment [1] (versus codeine or morphine, assay not given) is “significantly greater for compound (I) than for codeine or morphine”. In addition, in experiment [4], the “antipyretic activity (in words)” value is listed as “antipyretic activity”. Moreover, the “binding to the morphine receptor (in words)” value in experiment [5] is “does not bind to the morphine receptor”. Further, the “analgesic activity compared with known analgesics in the trypsin assay (in words)” value in experiment [6] (trypsin assay, versus acetaminophen, aspirin, zomepirac, codeine, morphine) is “superior to acetaminophen and the prostaglandin synthetase inhibitors such as aspirin and zomepirac as shown in the trypsin assay but less active than the opiates such as codeine or morphine”. Further, the “acute anti-inflammatory activity (in words)” value in experiment [7] (rat, carrageenan pleurisy assay) was “potent, long-lasting acute anti-inflammatory activity”. The “acute anti-inflammatory action compared with acetaminophen (in words)” value in experiment [7] (versus acetaminophen at comparable dose levels) was “more potent and to have a longer-lasting anti-inflammatory effect at comparable dose levels”.

Consider `COc1ccc2c3c1O[C@H]1[C@@H](O)C=C[C@H]4[C@@H](C2)N(C)CC[C@@]341` [Codeine], for which the ED50 in experiment [1] (setting [8]) turned out to be 57 ± 35.3 mg/kg. The “Hot plate Duration of Action (time to reduce 1.5 times the hot plate ED50 to 40% inhibition)” value in experiment [1] (rat, p.o., dose 90 mg/kg) worked out at 3.3 h.

Turning to `COc1ccc2c3c1O[C@H]1[C@@H](O)C=C[C@H]4[C@@H](C2)N(C)CC[C@@]341` [Codeine Phosphate], the ED50 in experiment [2] (Rattus norvegicus) was determined as 30 ± 2.7 mg/kg; in experiment [6] (Rattus norvegicus, po, 1 h, read-out: ED50, 6.0 kg Force (Modified Trypsin Hyperalgesic Assay)), 10 ± 1.7 mg/kg; in experiment [6] (Rattus norvegicus, po, 1 h, read-out: ED50, 7.5 kg Force (Modified Trypsin Hyperalgesic Assay)), 8.8 ± 2.77 mg/kg.

For `CC(=O)Oc1ccccc1C(=O)O` [Aspirin], the ED50 was 21 ± 3.4 mg/kg in experiment [2] (Rattus norvegicus); 50 ± 8.1 mg/kg in experiment [4]; > 180 mg/kg in experiment [6] (Rattus norvegicus, po, read-out: ED50, 6.0 kg Force (Modified Trypsin Hyperalgesic Assay), inactive). Further, the “Hot Plate Assay - Rat ED50, inactive” value in experiment [1] (rat, p.o.) was “Inactive”. Also, in experiment [4], the “antipyretic activity (in words)” value is recorded as “combats fever in the rat”.

For `CC(=O)Nc1ccc(O)cc1` [Acetaminophen], the “Hot Plate Assay - Rat ED50, inactive” value in experiment [1] (rat, p.o.) is listed as “Inactive”. In experiment [4], the ED50 was determined as 72 ± 8.6 mg/kg and the “antipyretic activity (in words)” value is “combats fever in the rat”. For the same molecule, the ED50 in experiment [6] (setting [9]) was 95 ± 17.2 mg/kg. In experiment [6] (po, rat, p.o., 7.5 kg Force, @ 200 mg/kg, read-out: ED50, 7.5 kg Force (Modified Trypsin Hyperalgesic Assay), inactive), the ED50 at 200 mg/kg was > 200 mg/kg.
